Experimental findings from patent EP2181708A1, “Use of Valproate for reducing CHOP levels, particularly in a mammal having SCI” (Universitat Autonoma de Barcelona, priority 2008, dated 2010) are described below.

Type in all cases: in vivo, Sprague-Dawley rats
One assay relates to BiP/Grp78. The experiment in a line: Western blot of BiP/Grp78 in spinal cord after contusion SCI. On the procedure:
(§1) Adult females Sprague-Dawley rats aged 11 weeks (220-250 g) were anesthetized with pentobarbital (40 mg/kg i.p.). When unresponsive, the vertebral column was exposed and a laminectomy carried out at T8-T9 levels. Rostral T7 and caudal T10 vertebral bodies were clamped with Adson stabilizing forceps, and carefully adjusted to level the spinal cord in the horizontal plane. A contusion injury was performed using the Infinite Horizon impactor device (Precision Scientific Instruments, Lexington, KY). The stainless steel impounder tip was placed at 3-4 mm above the exposed spinal cord, and then a fast impact produced applying forces of 150 or 250 kilodynes (KDyn) to the exposed spinal cord. The wound was sutured with 5-0 silk thread in the muscular plane and the skin was closed with small clips and disinfected with povidone iodine solution. Sham-operated animals received the same surgical procedure but sustained no impact injury; the spinal cord was left exposed for 5 min. The animals were maintained in a warm environment until full recovery, and received preventive antibiotic (amoxicyline) and analgesic (buprenorphine) treatment. […]
Rats were re-anesthetised and decapitated at 3 dpo for sample preparation. […] After clearance, protein concentration was measured by the BCA method assay (BCA Protein Assay kit, Pierce). […]

In the next assay the test system is hind limb locomotion. As to the kind of experiment: Open-field walking test (BBB scale) after spinal cord contusion. The conditions noted are these: SCI 250 Kdyn. The protocol: as §1, with “treatment. All animals were kept under standard conditions of light and temperature and fed with food and water ad libitum.” for “treatment.”
The test system of the next assay is spinal cord. The experiment in a line: Histological analysis of lesion volume, tissue sparing and myelin after SCI. The protocol: Adult females Sprague-Dawley rats aged 11 weeks (220-250 g) were anesthetized with pentobarbital (40 mg/kg i.p.). When unresponsive, the vertebral column was exposed and a laminectomy carried out at T8-T9 levels. Rostral T7 and caudal T10 vertebral bodies were clamped with Adson stabilizing forceps, and carefully adjusted to level the spinal cord in the horizontal plane. A contusion injury was performed using the Infinite Horizon impactor device (Precision Scientific Instruments, Lexington, KY). The stainless steel impounder tip was placed at 3-4 mm above the exposed spinal cord, and then a fast impact produced applying forces of 150 or 250 kilodynes (KDyn) to the exposed spinal cord. The wound was sutured with 5-0 silk thread in the muscular plane and the skin was closed with small clips and disinfected with povidone iodine solution. Sham-operated animals received the same surgical procedure but sustained no impact injury; the spinal cord was left exposed for 5 min. The animals were maintained in a warm environment until full recovery, and received preventive antibiotic (amoxicyline) and analgesic (buprenorphine) treatment. All animals were kept under standard conditions of light and temperature and fed with food and water ad libitum. The procedures involving animals were approved by the Ethics Committee of our institution, and followed the European Communities Council Directive 86/609/EEC.
VPA was intraperitoneally administered at an initial dose of 150 mg/kg by 3 h after surgery, and then a dose of 300 mg/Kg either every 24 h or every 12 h during the first week post-surgery, following by a dose of 300 mg/Kg every 24 h for the next two weeks. Groups of rats subjected to SCI or sham operation received VPA or saline injections following the same regime. Experiments were approved by the Ethics Committee at the Universitat Autònoma de Barcelona, and followed the European Communities Council Directive 86/609/EEC
At 3 or 35 days post-surgery, rats were perfused transcardially with 4% paraformaldehyde in 0.1M phosphate buffer saline (PBS, pH 7.4). […]

The test system of assay [1] is oligodendrocytes, astrocytes. As to the kind of experiment: Immunohistochemistry of glia (CC1/APC oligodendrocytes, GFAP astrocytes) after SCI. On the procedure: as §1, with “treatment. All animals were kept under standard conditions of light and temperature and fed with food and water ad libitum.” for “treatment.”
Where [2] appears, read: epicenter and adjacent section of the spinal cord, 35 days.

Structures are written as SMILES.

Regarding `CCCC(CCC)C(=O)O` [VPA, 2-propylpentanoic acid], the BiP levels result is listed as “not able to alter” with BiP/Grp78 (VPA 300 mg/kg every 12 h i.p., contusion 150 and 250 KDyn, three days post-injury); “did not produce changes” with BiP/Grp78 (VPA 300mg/kg once per day i.p., vs saline, 3 days post-injury). For the same compound, the BBB score is given as 3-4 with hind limb locomotion (7 days post-surgery, average of both groups) and 12 with hind limb locomotion (35 days, VPA 300 mg/kg every 12 h one week then every 24 h two weeks, saline 8). Moreover, the “extent of myelin loss” value in the assay on spinal cord (2 mm from the epicenter, cresyl violet and luxol fast blue, 35 dpo) is given as “markedly reduced”. Moreover, the “area of total tissue preserved” value in the assay on spinal cord (setting [2]) is “significantly increased”. Further, in the assay on spinal cord (setting [2]), the “area of white matter preserved” value is given as “significantly increased”. For the same compound, in assay [1] (35 dpo), the “total GFAP immunoreactivity in astrocytes” value is “no significant alterations”. Moreover, in assay [1] (CC1 antibody, 1 and 2 mm caudal to the epicentre, vs vehicle), the proportion of oligodendrocytes result is reported as “markedly increased”.
